Laboratory results reported in PubChem BioAssay (NCI).
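Protocol summary: plate cells (96-well), add compound at 5 concentrations, incubate 48 h, interpolate endpoints linearly. TGI denotes the concentration required for complete inhibition of growth.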

Experiments:
Assay in all cases: growth of human tumour cells (NCI), 48 h
HOP-92 NSCLC = system: HOP-92 NSCLC
RXF 393 renal = system: RXF 393 renal
A549 NSCLC = system: A549 NSCLC
SW-620 colon = system: SW-620 colon
SNB-19 CNS = system: SNB-19 CNS
ACHN renal = system: ACHN renal
MOLT-4 leukemia = system: MOLT-4 leukemia
MCF7 breast = system: MCF7 breast
NCI-H460 lung = system: NCI-H460 lung
CCRF-CEM leukemia = system: CCRF-CEM leukemia
U251 CNS = system: U251 CNS
UACC-257 melanoma = system: UACC-257 melanoma
MDA-N = system: MDA-N
DU-145 prostate = system: DU-145 prostate
HS 578T breast = system: HS 578T breast
HOP-62 NSCLC = system: HOP-62 NSCLC
SF-295 CNS = system: SF-295 CNS
IGROV1 ovarian = system: IGROV1 ovarian
HCT-116 colon = system: HCT-116 colon
HL-60(TB) leukemia = system: HL-60(TB) leukemia
HCT-15 colon = system: HCT-15 colon
MDA-MB-435 = system: MDA-MB-435
A498 renal = system: A498 renal
CAKI-1 renal = system: CAKI-1 renal
HT29 colon = system: HT29 colon
UO-31 renal = system: UO-31 renal
PC-3 prostate = system: PC-3 prostate
OVCAR-4 ovarian = system: OVCAR-4 ovarian
OVCAR-5 ovarian = system: OVCAR-5 ovarian
SN12C renal = system: SN12C renal
HCC-2998 colon = system: HCC-2998 colon
K-562 leukemia = system: K-562 leukemia
KM12 colon = system: KM12 colon
RPMI-8226 leukemia = system: RPMI-8226 leukemia
EKVX NSCLC = system: EKVX NSCLC
SF-268 CNS = system: SF-268 CNS
TK-10 renal = system: TK-10 renal
SK-MEL-28 melanoma = system: SK-MEL-28 melanoma
LOX IMVI melanoma = system: LOX IMVI melanoma
NCI-H226 lung = system: NCI-H226 lung
BT-549 breast = system: BT-549 breast
M14 melanoma = system: M14 melanoma
SNB-75 CNS = system: SNB-75 CNS
COLO 205 colon = system: COLO 205 colon
MDA-MB-231 breast = system: MDA-MB-231 breast
OVCAR-8 ovarian = system: OVCAR-8 ovarian
OVCAR-3 ovarian = system: OVCAR-3 ovarian
SK-MEL-2 melanoma = system: SK-MEL-2 melanoma
NCI-H522 lung = system: NCI-H522 lung
MALME-3M melanoma = system: MALME-3M melanoma
SR leukemia = system: SR leukemia
786-0 renal = system: 786-0 renal
NCI-H23 lung = system: NCI-H23 lung
SK-MEL-5 melanoma = system: SK-MEL-5 melanoma
NCI/ADR-RES ovarian = system: NCI/ADR-RES ovarian
SF-539 CNS = system: SF-539 CNS
SK-OV-3 ovarian = system: SK-OV-3 ovarian
UACC-62 melanoma = system: UACC-62 melanoma
T-47D breast = system: T-47D breast

SMILES: CCCCCc1cc2cc3c(c(O)c2c(=O)[nH]1)C1(CCC3)C(=O)c2c(O)ccc(O)c2C1=O
- TGI (HOP-92 NSCLC): > 100 µM
- TGI (RXF 393 renal): > 100 µM
- TGI (A549 NSCLC): > 100 µM
- TGI (SW-620 colon): > 100 µM
- TGI (SNB-19 CNS): > 100 µM
- TGI (ACHN renal): > 100 µM
- TGI (MOLT-4 leukemia): > 100 µM
- TGI (MCF7 breast): > 100 µM
- TGI (NCI-H460 lung): > 100 µM
- TGI (CCRF-CEM leukemia): > 100 µM
- TGI (U251 CNS): > 100 µM
- TGI (UACC-257 melanoma): > 100 µM
- TGI (MDA-N): > 100 µM
- TGI (DU-145 prostate): > 100 µM
- TGI (HS 578T breast): > 100 µM
- TGI (HOP-62 NSCLC): > 100 µM
- TGI (SF-295 CNS): > 100 µM
- TGI (IGROV1 ovarian): > 100 µM
- TGI (HCT-116 colon): > 100 µM
- TGI (HL-60(TB) leukemia): > 100 µM
- TGI (HCT-15 colon): > 100 µM
- TGI (MDA-MB-435): > 100 µM
- TGI (A498 renal): > 100 µM
- TGI (CAKI-1 renal): > 100 µM
- TGI (HT29 colon): > 100 µM
- TGI (UO-31 renal): > 100 µM
- TGI (PC-3 prostate): > 100 µM
- TGI (OVCAR-4 ovarian): > 100 µM
- TGI (OVCAR-5 ovarian): > 100 µM
- TGI (SN12C renal): > 100 µM
- TGI (HCC-2998 colon): > 100 µM
- TGI (K-562 leukemia): > 100 µM
- TGI (KM12 colon): > 100 µM
- TGI (RPMI-8226 leukemia): > 100 µM
- TGI (EKVX NSCLC): > 100 µM
- TGI (SF-268 CNS): > 100 µM
- TGI (TK-10 renal): > 100 µM
- TGI (SK-MEL-28 melanoma): > 100 µM
- TGI (LOX IMVI melanoma): > 100 µM
- TGI (NCI-H226 lung): > 100 µM
- TGI (BT-549 breast): > 100 µM
- TGI (M14 melanoma): > 100 µM
- TGI (SNB-75 CNS): > 100 µM
- TGI (COLO 205 colon): > 100 µM
- TGI (MDA-MB-231 breast): > 100 µM
- TGI (OVCAR-8 ovarian): > 100 µM
- TGI (OVCAR-3 ovarian): > 100 µM
- TGI (SK-MEL-2 melanoma): > 100 µM
- TGI (NCI-H522 lung): > 100 µM
- TGI (MALME-3M melanoma): > 100 µM
- TGI (SR leukemia): > 100 µM
- TGI (786-0 renal): > 100 µM
- TGI (NCI-H23 lung): > 100 µM
- TGI (SK-MEL-5 melanoma): > 100 µM
- TGI (NCI/ADR-RES ovarian): > 100 µM
- TGI (SF-539 CNS): > 100 µM

SMILES: COC1C(O)C(C)OC(O[C@H]2CC[C@@]3(C)C(CC[C@@H]4[C@@H]3CC[C@]3(C)[C@@H](C(C)OC5OC(CO)C(O)C(O)C5O)CC[C@]43O)C2)C1O (stereo not given in full)
- TGI (HOP-92 NSCLC): > 25 µM
- TGI (A549 NSCLC): > 25 µM
- TGI (SW-620 colon): > 25 µM
- TGI (SNB-19 CNS): > 25 µM
- TGI (ACHN renal): > 25 µM
- TGI (MOLT-4 leukemia): > 25 µM
- TGI (MCF7 breast): > 25 µM
- TGI (NCI-H460 lung): > 25 µM
- TGI (CCRF-CEM leukemia): > 25 µM
- TGI (U251 CNS): > 25 µM
- TGI (UACC-257 melanoma): > 25 µM
- TGI (MDA-N): > 25 µM
- TGI (HS 578T breast): > 25 µM
- TGI (HOP-62 NSCLC): > 25 µM
- TGI (SF-295 CNS): > 25 µM
- TGI (IGROV1 ovarian): > 25 µM
- TGI (HCT-116 colon): > 25 µM
- TGI (HL-60(TB) leukemia): > 25 µM
- TGI (HCT-15 colon): > 25 µM
- TGI (MDA-MB-435): > 25 µM
- TGI (A498 renal): > 25 µM
- TGI (CAKI-1 renal): > 25 µM
- TGI (HT29 colon): > 25 µM
- TGI (UO-31 renal): > 25 µM
- TGI (PC-3 prostate): > 25 µM
- TGI (OVCAR-4 ovarian): > 25 µM
- TGI (OVCAR-5 ovarian): > 25 µM
- TGI (SN12C renal): > 25 µM
- TGI (HCC-2998 colon): > 25 µM
- TGI (K-562 leukemia): > 25 µM
- TGI (KM12 colon): > 25 µM
- TGI (RPMI-8226 leukemia): > 25 µM
- TGI (EKVX NSCLC): > 25 µM
- TGI (SF-268 CNS): > 25 µM
- TGI (TK-10 renal): > 25 µM
- TGI (SK-MEL-28 melanoma): > 25 µM
- TGI (LOX IMVI melanoma): > 25 µM
- TGI (NCI-H226 lung): > 25 µM
- TGI (M14 melanoma): > 25 µM
- TGI (SNB-75 CNS): > 25 µM
- TGI (SK-OV-3 ovarian): > 25 µM
- TGI (MDA-MB-231 breast): > 25 µM
- TGI (OVCAR-8 ovarian): > 25 µM
- TGI (OVCAR-3 ovarian): > 25 µM
- TGI (SK-MEL-2 melanoma): > 25 µM
- TGI (NCI-H522 lung): > 25 µM
- TGI (UACC-62 melanoma): > 25 µM
- TGI (SR leukemia): > 25 µM
- TGI (786-0 renal): > 25 µM
- TGI (NCI-H23 lung): > 25 µM
- TGI (SK-MEL-5 melanoma): > 25 µM
- TGI (NCI/ADR-RES ovarian): > 25 µM
- TGI (SF-539 CNS): > 25 µM

SMILES: C=C(C)C1(Sc2ccc(OC)cc2)CC1
- TGI (RXF 393 renal): 36.3 µM
- TGI (A549 NSCLC): > 100 µM
- TGI (SW-620 colon): > 100 µM
- TGI (SNB-19 CNS): > 100 µM
- TGI (ACHN renal): > 100 µM
- TGI (MOLT-4 leukemia): 40.3 µM
- TGI (MCF7 breast): > 100 µM
- TGI (NCI-H460 lung): > 100 µM
- TGI (CCRF-CEM leukemia): > 100 µM
- TGI (U251 CNS): > 100 µM
- TGI (UACC-257 melanoma): 55.7 µM
- TGI (MDA-N): > 100 µM
- TGI (DU-145 prostate): > 100 µM
- TGI (HOP-62 NSCLC): > 100 µM
- TGI (SF-295 CNS): 71 µM
- TGI (IGROV1 ovarian): 98.4 µM
- TGI (HCT-116 colon): > 100 µM
- TGI (HL-60(TB) leukemia): 41.6 µM
- TGI (HCT-15 colon): > 100 µM
- TGI (MDA-MB-435): 44 µM
- TGI (A498 renal): > 100 µM
- TGI (CAKI-1 renal): > 100 µM
- TGI (HT29 colon): 61.8 µM
- TGI (UO-31 renal): > 100 µM
- TGI (PC-3 prostate): > 100 µM
- TGI (OVCAR-4 ovarian): > 100 µM
- TGI (OVCAR-5 ovarian): > 100 µM
- TGI (SN12C renal): 35.4 µM
- TGI (HCC-2998 colon): 34.2 µM
- TGI (K-562 leukemia): > 100 µM
- TGI (KM12 colon): > 100 µM
- TGI (RPMI-8226 leukemia): > 100 µM
- TGI (EKVX NSCLC): > 100 µM
- TGI (SF-268 CNS): 67 µM
- TGI (TK-10 renal): > 100 µM
- TGI (SK-MEL-28 melanoma): > 100 µM
- TGI (LOX IMVI melanoma): 33.4 µM
- TGI (NCI-H226 lung): 54.7 µM
- TGI (BT-549 breast): 58 µM
- TGI (M14 melanoma): > 100 µM
- TGI (SNB-75 CNS): 78.5 µM
- TGI (COLO 205 colon): 60.1 µM
- TGI (SK-OV-3 ovarian): > 100 µM
- TGI (MDA-MB-231 breast): > 100 µM
- TGI (T-47D breast): > 100 µM
- TGI (OVCAR-8 ovarian): > 100 µM
- TGI (OVCAR-3 ovarian): 29.7 µM
- TGI (SK-MEL-2 melanoma): 56.5 µM
- TGI (UACC-62 melanoma): > 100 µM
- TGI (MALME-3M melanoma): 66.9 µM
- TGI (SR leukemia): 37.4 µM
- TGI (786-0 renal): > 100 µM
- TGI (NCI-H23 lung): > 100 µM
- TGI (SK-MEL-5 melanoma): 31.6 µM
- TGI (NCI/ADR-RES ovarian): > 100 µM
- TGI (SF-539 CNS): > 100 µM
